{"source": "patent US20250339409A1", "about": "“USES OF PAN BET INHIBITORS” (VYNE THERAPEUTICS INC., priority 2021, published 2025)", "system": "bleomycin induced pulmonary fibrosis", "test": "Bleomycin induced pulmonary fibrosis in mice, nebulized treatment: body weight, weight of whole lung, survival", "assay_type": "in vivo", "details": "for Predicted (LS) mean diff., % Change Body Weight, Group 2 Bleo/Veh vs. BETi1 group: Baseline, Two Way ANOVA; for Predicted (LS) mean diff., % Change Body Weight, Group 2 Bleo/Veh vs. BETi1 group / Mean Diff., Weight of Whole lung, Group 2 Bleo/Veh vs. BETi1 group: Dunnett's; for Mean Diff., Weight of Whole lung, Group 2 Bleo/Veh vs. BETi1 group: One Way ANOVA; for % change in Body Weight Week 1 Compared to Baseline, mean / % change in Body Weight week 2 Compared to Baseline, mean / % change in Body Weight week 3 Compared to Baseline, Mean: group mean; for % change in Body Weight Week 1 Compared to Baseline / % change in Body Weight week 2 Compared to Baseline / % change in Body Weight week 3 Compared to Baseline: individual animals", "method": "Bleomycin, a […], which acts inter alia by induction of DNA strand breaks.\nThe Bleomycin induced pulmonary fibrosis in a murine model is used to assess anti-fibrotic and/or anti-inflammatory properties of BETi1 formulations at three concentrations. Fifty C57BL/6 male mice aged 6 to 7 weeks and weighing between 25-30 grams are randomized into five treatment groups (10 mice each): (a) bleomycin induced mice treated with BETi1 at three concentrations (0.06 mg/mL, 0.6 mg/mL and 3 mg/mL); (b) bleomycin induced mice treated with vehicle (control for active) and (c) uninduced mice treated with vehicle (sham) (control for disease).\nTo generate the morphological and functional aspects of PF, 50 uL bleomycin sulfate in saline per mouse is intranasally dosed on Day 0 (other than for group 1 sham receiving saline). The bleomycin IU conversion to enzyme units (U) is approximately 2 U/mg. For delivery of 4 U/kg in 50 μL, a solution of 2 U/ml (for 25 g mouse) is prepared in 0.9% NaCl.\n5 ml of BETi1 solutions at 3 doses, or vehicle and bleomycin concomitantly are delivered once daily for 21 days with a nebulizer based aerosol delivery system (eFlow® rapid Nebuliser System) by inhalation for a period which allows the solutions to be nebulized and up to 2 hours per day. A sham group receives vehicle only. Body weights are recorded on days 1, 7, 14, and 21. Mortality and clinical observations are recorded daily.\nOn day 21, mice are euthanized by cervical dislocation and the whole lung is dissected and weighed. The chest is wet with alcohol and large scissors are used to open the ribcage. The lungs are removed with fine scissors and forceps, rinsed with PBS and patted dry on gauze.\nInvestigation of the anti-fibrotic properties of BETi1 composition against TGF-β mediated fibrosis was undertaken in a bleomycin induced murine model mimicking IPF in accordance with the protocol set out in Experimental Method R.", "note": "Values joined by “and” are separate entries in the source; they are usually repeats but may differ in a detail not shown here. Equal values may be shown once.", "data": [{"molecule": "Cn1cc(-c2cccc(O)c2Oc2ccccc2)c2cc[nH]c2c1=O", "note": "[BETi1]", "values": [{"measurement": "whole lung weight", "setting": "0.06 mg/mL and 0.6 mg/mL, vs bleomycin and vehicle", "result": "slight decrease in lung weight"}, {"measurement": "Probability of Survival", "setting": "0.06 mg/mL inhaled, until day 20", "result": 50, "unit": "%"}, {"measurement": "Probability of Survival", "setting": "0.6 mg/mL inhaled, until day 20", "result": 81.3, "unit": "%"}, {"measurement": "Probability of Survival", "setting": "3 mg/mL inhaled, until day 20", "result": 76.5, "unit": "%"}, {"measurement": "Predicted (LS) mean diff., % Change Body Weight, Group 2 Bleo/Veh vs. BETi1 group", "setting": "Group 3 Bleo/BETi1 0.06 mg/mL", "result": 0.0875, "unit": "%"}, {"measurement": "Predicted (LS) mean diff., % Change Body Weight, Group 2 Bleo/Veh vs. BETi1 group", "setting": "Group 4 Bleo/BETi1 0.6 mg/mL", "result": 0.1750, "unit": "%"}, {"measurement": "Predicted (LS) mean diff., % Change Body Weight, Group 2 Bleo/Veh vs. BETi1 group", "setting": "Group 5 Bleo/BETi1 3 mg/mL", "result": 0.1629, "unit": "%"}, {"measurement": "Mean 2 (group mean), Weight of Whole lung", "setting": "Group 3 Bleo/BETi1 0.06 mg/mL", "result": 0.2695}, {"measurement": "Weight of Whole lung, Mean", "setting": "Group 3 Bleo/BETi1 0.06 mg/mL", "result": 0.27, "unit": "grams"}, {"measurement": "Weight of Whole lung, individual animals", "setting": "Group 3 Bleo/BETi1 0.06 mg/mL", "result": "0.32 grams and 0.28 grams and 0.25 grams and 0.27 grams (3×) and 0.30 grams and 0.19 grams"}, {"measurement": "Probability of Survival", "setting": "Group 3 Bleo/BETi1 0.06 mg/mL, Day Elapsed 0", "result": 100, "unit": "%"}, {"measurement": "Probability of Survival", "setting": "Group 3 Bleo/BETi1 0.06 mg/mL, Day Elapsed 8", "result": 93.75, "unit": "%"}, {"measurement": "Probability of Survival", "setting": "Group 3 Bleo/BETi1 0.06 mg/mL, Day Elapsed 9", "result": 81.25, "unit": "%"}, {"measurement": "Probability of Survival", "setting": "Group 3 Bleo/BETi1 0.06 mg/mL, Day Elapsed 10", "result": 75, "unit": "%"}, {"measurement": "Probability of Survival", "setting": "Group 3 Bleo/BETi1 0.06 mg/mL, Day Elapsed 12", "result": 68.75, "unit": "%"}, {"measurement": "Probability of Survival", "setting": "Group 3 Bleo/BETi1 0.06 mg/mL, Day Elapsed 14", "result": 62.5, "unit": "%"}, {"measurement": "Probability of Survival", "setting": "Group 3 Bleo/BETi1 0.06 mg/mL, Day Elapsed 18", "result": 56.25, "unit": "%"}, {"measurement": "Probability of Survival", "setting": "Group 3 Bleo/BETi1 0.06 mg/mL, Day Elapsed 19", "result": 50, "unit": "%"}, {"measurement": "Probability of Survival", "setting": "Group 3 Bleo/BETi1 0.06 mg/mL, Day Elapsed 20", "result": 50, "unit": "%"}, {"measurement": "Mean Diff., Weight of Whole lung, Group 2 Bleo/Veh vs. BETi1 group", "setting": "Group 3 Bleo/BETi1 0.06 mg/mL", "result": 0.01712}, {"measurement": "% change in Body Weight Week 1 Compared to Baseline, mean", "setting": "Group 3 Bleo/BETi1 0.06 mg/mL", "result": "−22.10", "unit": "%"}, {"measurement": "% change in Body Weight week 2 Compared to Baseline, mean", "setting": "Group 3 Bleo/BETi1 0.06 mg/mL", "result": "−19.98", "unit": "%"}, {"measurement": "% change in Body Weight week 3 Compared to Baseline, Mean", "setting": "Group 3 Bleo/BETi1 0.06 mg/mL", "result": "−8.83", "unit": "%"}, {"measurement": "% change in Body Weight Week 1 Compared to Baseline", "setting": "Group 3 Bleo/BETi1 0.06 mg/mL", "result": "−37.04% and −20.00% and −39.32% and −11.86% and −37.37% and −3.83% and −26.78% and −31.75% and −37.30% and −38.92% and −35.61% and −25.13% and −14.61% and −18.53% and −13.95% and −12.29%"}, {"measurement": "% change in Body Weight week 2 Compared to Baseline", "setting": "Group 3 Bleo/BETi1 0.06 mg/mL", "result": "−39.35% and −15.35% and −47.44% and −1.27% and −1.28% and −37.16% and −39.04% and −8.22% and −19.83% and −3.26% and −7.63%"}, {"measurement": "% change in Body Weight week 3 Compared to Baseline", "setting": "Group 3 Bleo/BETi1 0.06 mg/mL", "result": "−37.04% and −9.77% and −0.85% and −2.13% and −5.02% and −14.22% and 0.93% and −2.54%"}, {"measurement": "Mean 2 (group mean), Weight of Whole lung", "setting": "Group 4 Bleo/BETi1 0.6 mg/mL", "result": 0.2681}, {"measurement": "Weight of Whole lung, Mean", "setting": "Group 4 Bleo/BETi1 0.6 mg/mL", "result": 0.27, "unit": "grams"}, {"measurement": "Weight of Whole lung, individual animals", "setting": "Group 4 Bleo/BETi1 0.6 mg/mL", "result": "0.13 grams and 0.31 grams and 0.29 grams and 0.32 grams and 0.37 grams and 0.27 grams and 0.20 grams (2×) and 0.33 grams and 0.34 grams (2×) and 0.18 grams and 0.21 grams"}, {"measurement": "Probability of Survival", "setting": "Group 4 Bleo/BETi1 0.6 mg/mL, Day Elapsed 0", "result": 100, "unit": "%"}, {"measurement": "Probability of Survival", "setting": "Group 4 Bleo/BETi1 0.6 mg/mL, Day Elapsed 10", "result": 87.5, "unit": "%"}, {"measurement": "Probability of Survival", "setting": "Group 4 Bleo/BETi1 0.6 mg/mL, Day Elapsed 19", "result": 81.3, "unit": "%"}, {"measurement": "Probability of Survival", "setting": "Group 4 Bleo/BETi1 0.6 mg/mL, Day Elapsed 20", "result": 81.3, "unit": "%"}, {"measurement": "Mean Diff., Weight of Whole lung, Group 2 Bleo/Veh vs. BETi1 group", "setting": "Group 4 Bleo/BETi1 0.6 mg/mL", "result": 0.01849}, {"measurement": "% change in Body Weight Week 1 Compared to Baseline, mean", "setting": "Group 4 Bleo/BETi1 0.6 mg/mL", "result": "−21.76", "unit": "%"}, {"measurement": "% change in Body Weight week 2 Compared to Baseline, mean", "setting": "Group 4 Bleo/BETi1 0.6 mg/mL", "result": "−17.12", "unit": "%"}, {"measurement": "% change in Body Weight week 3 Compared to Baseline, Mean", "setting": "Group 4 Bleo/BETi1 0.6 mg/mL", "result": "−13.58", "unit": "%"}, {"measurement": "% change in Body Weight Week 1 Compared to Baseline", "setting": "Group 4 Bleo/BETi1 0.6 mg/mL", "result": "−10.00% and −30.77% and −22.17% and −31.64% and −20.93% and −27.01% and −24.89% and −31.19% and −5.26% and −14.75% and −23.22% and −25.78% and −4.72% and −10.36% and −31.41% and −8.41%"}, {"measurement": "% change in Body Weight week 2 Compared to Baseline", "setting": "Group 4 Bleo/BETi1 0.6 mg/mL", "result": "−8.00% and −33.52% and −16.04% and −27.44% and −32.70% and −21.78% and 0.96% and −18.89% and −16.11% and −23.11% and −0.47% and −0.90% and −39.27% and −2.34%"}, {"measurement": "% change in Body Weight week 3 Compared to Baseline", "setting": "Group 4 Bleo/BETi1 0.6 mg/mL", "result": "−7.50% and −34.62% and −7.55% and −27.91% and −34.12% and −12.89% and 2.39% and −6.45% and −14.69% and −19.56% and −3.30% and −9.91% and −0.47%"}, {"measurement": "Mean 2 (group mean), Weight of Whole lung", "setting": "Group 5 Bleo/BETi1 3 mg/mL", "result": 0.2847}]}]}
